Results on 6 molecules are retold here after patent US6475751B2, “Scintillation proximity assay for type II fatty acid biosynthetic enzymes” (Virginia Commonwealth University, priority 2000, dated 2002).

Where two headings read alike, the source gives them in different places.

Data set [1] concerns the target T1, E. coli KASIII (Escherichia coli, UniProt P0A6R0). As to the kind of experiment: KASIII scintillation proximity assay (SPA). It counts as biochemical. How it is done:
(§1) The standard reaction mixture contained the following components in a final volume of […]: S. glaucescens His6-KASIII […], 100 mM imidazole, pH 7.0, 2.6 μM BMACP (MACP), [^3H] acetyl-CoA 0.6 μM (0.24 μCi, specific activity 20 Ci/mmol). The reaction was initiated by adding [^3H] acetyl-CoA and incubated at 30 ° C. for 10 minutes.
(§2) For the KASIII SPA, the reaction was terminated by the sequential addition of 100 μl of 100% ethanol (which denatures the KASIII) and 50 μl of the SPA bead solution (10 mg/ml). The mixture was then incubated for 2 hr at 23° C. with gentle shaking. After allowing the beads to settle the sealed OptiPlate (Packard, Meriden, Conn.) was counted using a TopCount (Packard) set up in SPA mode. A background signal was obtained by carrying out the assay in absence of KASIII. This background signal was subtracted from KASIII SPA signals.
In the KASIII TCA precipitation assay, the reaction was quenched by the addition of 200 μl ice cold 10% TCA, incubated on ice for 10 min and centrifuged at 13,000 g for 10 min. The supernatant was discarded and the pellet was resuspended with another 200 μl of cold TCA and centrifuged. The pellet bound ^3H labeled product was dissolved in 2% SDS, 20 mM NaOH and quantitated by liquid scintillation counting. […]

For data set [2], the target named is T1, E. coli KASIII. As to the kind of experiment: KASIII TCA precipitation assay. It counts as biochemical. How it is done:
as §1
(§3) In the KASIII TCA precipitation assay, the reaction was quenched by the addition of 200 μl ice cold 10% TCA, incubated on ice for 10 min and centrifuged at 13,000 g for 10 min. The supernatant was discarded and the pellet was resuspended with another 200 μl of cold TCA and centrifuged. The pellet bound ^3H labeled product was dissolved in 2% SDS, 20 mM NaOH and quantitated by liquid scintillation counting. The Escherichia coli KASIII assay was performed in the same manner except that the incubation time was reduced to 2 minutes, and 0.13 μg of protein and 0.4 μM MACP (BMACP) were used in the assay.
(§4) In all inhibitor studies, the inhibitor was first dissolved in DMSO and preincubated with enzyme for 15 minutes at 23° C., prior to addition of substrate. The final DMSO concentration in each of these assays remained below 1%.

Data set [3] has as its target T2, S. glaucescens His6-KASIII (Streptomyces glaucescens, UniProt Q54206).
T2 construct: His6 (N); made in house; host or cells: Escherichia coli BL21 (DE3 pLysE)/pLH14
T2 sequence (Q54206 1-333): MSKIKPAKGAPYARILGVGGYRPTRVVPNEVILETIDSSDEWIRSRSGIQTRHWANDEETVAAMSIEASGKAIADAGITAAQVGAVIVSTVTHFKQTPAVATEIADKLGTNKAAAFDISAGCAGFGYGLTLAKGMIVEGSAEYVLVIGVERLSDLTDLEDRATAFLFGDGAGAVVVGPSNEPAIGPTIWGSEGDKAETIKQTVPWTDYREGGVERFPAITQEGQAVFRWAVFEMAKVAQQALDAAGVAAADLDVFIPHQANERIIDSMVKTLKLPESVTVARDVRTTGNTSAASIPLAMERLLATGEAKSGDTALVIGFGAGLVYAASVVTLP
As to the kind of experiment: KASIII scintillation proximity assay (SPA). The format is biochemical. The procedure:
as §1, §2, §4
The apparent Km for MACP with the S. glaucescens KASIII was determined using the standard TCA precipitation assay with the following modifications: tritiated acetyl-CoA at a final concentration of 13.3 μM (0.4 μCi, specific activity 1 Ci/mmol ) was incubated at 30° C. for 5 min with various concentrations of MACP (0.39-18.7 μM) in a volume of 30 μl. The apparent Km for BMACP with the S. glaucescens KASIII was determined in SPA format. Tritiated acetyl-CoA at a final concentration of 7.5 μM (0.6 μCi, specific activity 4 Ci/mmol) was incubated at 30° C. for 9 min with various BMACP concentrations (0.28 to 9 μM).

In data set [4] the target is T2, S. glaucescens His6-KASIII. The following applies: cited from earlier work.
Data set [5] deals with T2, S. glaucescens His6-KASIII. As to the kind of experiment: KASIII TCA precipitation assay. The format is biochemical. How it is done:
as §1, §3
In all inhibitor studies, the inhibitor was first dissolved in DMSO and preincubated with enzyme for 15 minutes at 23° C., prior to addition of substrate. The final DMSO concentration in each of these assays remained below 1%. […]

T1 sequence (P0A6R0 whole entry): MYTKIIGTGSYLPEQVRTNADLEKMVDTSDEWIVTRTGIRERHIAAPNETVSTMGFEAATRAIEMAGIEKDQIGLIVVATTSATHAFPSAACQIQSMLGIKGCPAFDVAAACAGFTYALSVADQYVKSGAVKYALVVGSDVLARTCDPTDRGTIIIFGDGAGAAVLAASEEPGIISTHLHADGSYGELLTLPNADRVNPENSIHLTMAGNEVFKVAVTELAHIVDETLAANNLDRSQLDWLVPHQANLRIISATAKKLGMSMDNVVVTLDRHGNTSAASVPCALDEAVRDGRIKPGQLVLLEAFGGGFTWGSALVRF

As a reminder, the IC50 is the point on the concentration scale where inhibition reaches its midpoint. Read a high IC50 as a need for much substance. `C=C/C(C)=C/[C@@]1(C)SC(=O)C(C)=C1O` [thiolactomycin]: the IC50 turned out to be 124 ± 14 µM against E. coli KASIII [1] and 160 ± 14 µM on E. coli KASIII [2].

The term Km denotes the concentration of substrate that gives half-maximal velocity. “BMACP: Biotinylated Malonyl-Acyl Carrier Protein, prepared by biotinylation of MACP using NHS-biotin; KASIII substrate”: the Km in data set [3] (SPA format, 7.5 μM tritiated acetyl-CoA, 30° C., 9 min, read-out: Km (apparent) for substrate) was 7.2 ± 2.6 µM; in data set [4] (previously determined using a TCA precipitation assay, read-out: Km previously determined), 3.7 µM.

In the case of `NC(=O)CI` [iodoacetamide, Iodoacetamide, reference compound], the IC50 amounted to 15 ± 1 µM in data set [3] and 25 ± 3 µM in data set [5] (TCA precipitation assay, inhibitor preincubated with enzyme 15 minutes at 23° C.).

Consider `C[S+](C)[O-]` [DMSO, Dimethyl Sulfoxide], for which, in data set [3] (DMSO concentration of 10% v/v), the “reduction in the SPA signal” value is recorded as around 50%. Moreover, the “decrease in the SPA signal” value in data set [3] (DMSO concentrations below 1.5% v/v) is “no significant decrease”.

Turning to “MACP: Malonyl-Acyl Carrier Protein generated from Escherichia coli ACP and malonyl-CoA; KASIII substrate”, the Km in data set [5] (TCA-based assay, 13.3 μM tritiated acetyl-CoA, 30° C., 5 min, read-out: Km (apparent) for substrate) worked out at 6.1 ± 0.4 µM.

Regarding `CC(=O)SCCNC(=O)CCNC(=O)[C@H](O)C(C)(C)COP(=O)(O)OP(=O)(O)OC[C@H]1O[C@@H](n2cnc3c(N)ncnc32)[C@H](O)[C@@H]1OP(=O)(O)O` [acetyl-CoA], the Km in data set [3] (SPA, suggested by linear relationship over 0-1.6 μM substrate, read-out: Km for acetyl-CoA) is above 1.6 µM; in data set [4] (previous analyses using a TCA-precipitation assay, read-out: Km for acetyl-CoA), 3 µM.
